This note sets out measurements from publication PMC11031820, “Structural determinants of the direct inhibition of GIRK channels by Sigma-1 receptor antagonist” (The Journal of Biological Chemistry, 2024).

Holding throughout (type): cell-based
Experiment [1] has as its target T1, GIRK4 (Rattus norvegicus, UniProt P48548, E147Q).
T1 construct: gene Kcnj5
In words: two-electrode voltage clamp in Xenopus oocytes, […] compound. In general terms: Two-electrode voltage clamp holds a large cell at a set potential and records current.

For experiment [2], the target named is T2, GIRK4 (Rattus norvegicus, UniProt P48548).
T2 construct: gene Kcnj5
T2 sequence (P48548 whole entry): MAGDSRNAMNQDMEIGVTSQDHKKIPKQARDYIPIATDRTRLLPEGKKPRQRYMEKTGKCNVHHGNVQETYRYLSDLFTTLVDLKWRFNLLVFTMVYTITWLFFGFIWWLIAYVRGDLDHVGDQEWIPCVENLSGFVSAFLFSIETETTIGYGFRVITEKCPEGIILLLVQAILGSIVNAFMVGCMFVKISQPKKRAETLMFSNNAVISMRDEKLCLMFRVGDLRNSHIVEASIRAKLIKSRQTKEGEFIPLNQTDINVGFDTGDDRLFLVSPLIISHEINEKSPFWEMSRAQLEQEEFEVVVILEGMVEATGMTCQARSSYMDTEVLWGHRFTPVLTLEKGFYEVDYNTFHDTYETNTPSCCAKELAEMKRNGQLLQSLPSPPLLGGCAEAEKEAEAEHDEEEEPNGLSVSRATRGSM
T2 sequence (P62871 2-340 partner): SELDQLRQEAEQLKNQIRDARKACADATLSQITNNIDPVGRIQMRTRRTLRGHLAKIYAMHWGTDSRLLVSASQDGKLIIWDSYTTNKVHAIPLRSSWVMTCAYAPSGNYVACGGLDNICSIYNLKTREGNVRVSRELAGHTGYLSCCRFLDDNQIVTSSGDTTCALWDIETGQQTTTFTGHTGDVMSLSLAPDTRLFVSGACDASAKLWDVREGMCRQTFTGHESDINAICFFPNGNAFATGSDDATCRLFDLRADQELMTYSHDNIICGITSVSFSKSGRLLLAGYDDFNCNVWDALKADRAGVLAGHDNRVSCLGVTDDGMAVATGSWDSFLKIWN
T2 sequence (P63212 2-68 partner): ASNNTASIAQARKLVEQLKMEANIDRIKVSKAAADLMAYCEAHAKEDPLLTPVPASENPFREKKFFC
In words: two-electrode voltage clamp in Xenopus oocytes, homomeric GIRK4 co-expressed with Gβγ.

The target in experiment [3] is T3, GIRK2 (Mus musculus, UniProt P48542).
T3 construct: gene Kcnj6
T3 sequence (P48542 whole entry): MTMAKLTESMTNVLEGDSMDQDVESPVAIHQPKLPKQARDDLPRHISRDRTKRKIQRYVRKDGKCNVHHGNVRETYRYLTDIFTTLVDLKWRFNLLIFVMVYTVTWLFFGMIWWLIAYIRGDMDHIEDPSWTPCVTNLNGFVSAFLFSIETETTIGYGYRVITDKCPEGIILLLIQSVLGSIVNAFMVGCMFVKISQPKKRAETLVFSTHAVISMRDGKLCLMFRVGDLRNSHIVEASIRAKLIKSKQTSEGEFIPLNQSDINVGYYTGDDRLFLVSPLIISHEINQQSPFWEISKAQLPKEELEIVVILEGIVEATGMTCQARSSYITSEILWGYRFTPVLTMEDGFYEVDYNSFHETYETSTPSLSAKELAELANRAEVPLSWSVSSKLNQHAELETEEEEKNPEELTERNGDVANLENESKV
T3 sequence (P62871 2-340 partner): as the sequence (P62871 2-340 partner) above
T3 sequence (P63212 2-68 partner): as the sequence (P63212 2-68 partner) above
In words: two-electrode voltage clamp in Xenopus oocytes, homomeric GIRK2 co-expressed with Gβγ.

For experiment [4], the target named is T4, GIRK2 (Mus musculus, UniProt P48542, I82L).
T4 construct: gene Kcnj6
T4 sequence (P48542 whole entry I82L): as the sequence (P48542 whole entry) above, with I82L counted along it
T4 sequence (P62871 2-340 partner): as the sequence (P62871 2-340 partner) above
T4 sequence (P63212 2-68 partner): as the sequence (P63212 2-68 partner) above
In words: two-electrode voltage clamp in Xenopus oocytes, […] compound.

Experiment [5] has as its target T2, GIRK4. In words: two-electrode voltage clamp in Xenopus oocytes, GIRK4+Gβγ, […] compound.
In experiment [6] the target is T3, GIRK2. In words: two-electrode voltage clamp in Xenopus oocytes, GIRK2+Gβγ, […] compound.

T1 sequence (P48548 whole entry E147Q): as the sequence (P48548 whole entry) above, with E147Q counted along it
T1 sequence (P62871 2-340 partner): as the sequence (P62871 2-340 partner) above
T1 sequence (P63212 2-68 partner): as the sequence (P63212 2-68 partner) above

For `CN(C)CCN(C)CCc1ccc(Cl)c(Cl)c1` [BD1047], at GIRK4 [1], the “two-electrode voltage clamp in Xenopus oocytes, 100 μM compound” value is listed as “It was observed that GIRK4 E147Q maintained the strong inhibition as WT”. Moreover, the 50% inhibitory concentration (IC50) was found to be 17.4 ± 3.7 µM against GIRK4 [2] and 75.4 ± 9.7 µM at GIRK2 [3]. Further, at GIRK2 [4], the inhibition at 100 µM was determined as 61 ± 1.9%.
Consider `CN1CCN(CCc2ccc(Cl)c(Cl)c2)CC1` [BD1063], for which the inhibition at 100 µM at GIRK4 [5] was determined as 61.4 ± 2.6%; at GIRK2 [6], 31.1 ± 12%.

What is called IC50 is the concentration at which inhibition is half-maximal. Low values mean greater potency in that assay, high ones weaker potency in that assay. As usually defined, the inhibition is the percentage by which the read-out fell short of the control. Low values mean a weak effect, high ones a strong effect.
